Source: US20260272906A1, “PERIPHERALLY RESTRICTED LPAR1 ANTAGONISTS AND USES THEREOF” (CONTINEUM THERAPEUTICS, INC., priority 2024, published 2026)

What was measured:
[1] = Rat PK: brain penetration after PO dosing; assay type: in vivo; conditions: 10 mg/kg, Rat PK: Dosing PO @ 10 mpk; for Kp uu: read-out: Kp,uu (unbound brain-to-plasma partitioning)
human LPA1 = human LPA1 (Homo sapiens, UniProt Q92633); experiment: In vitro functional assay of lysophosphatidic acid receptor 1 activity (calcium flux, Fluo-4 NW, LPA 18:1 at EC80); assay type: cell-based; conditions: B103 cells stably expressing human LPA1
Experimental: Primary compound plates were prepared in 100% DMSO (Sigma-Aldrich), secondary compound plates were prepared at 10× concentration in DMEM (Invitrogen), and tertiary compound plates were prepared at 3× concentration in assay buffer containing HBSS (no Ca^+2/Mg^+2, Invitrogen) and 0.1% BSA (Sigma-Aldrich). Fluo-4 NW calcium assay dye (Invitrogen) was prepared as per manufacturer's recommendations in assay buffer. B103 cells stably expressing human LPA1 (J. Chun lab, UCSD) were grown to confluency in DMEM media (Invitrogen) containing 10% FBS (ATCC), 10% Penicillin-Streptomycin (Sigma-Aldrich) and 50 μg Geneticin (Sigma-Aldrich), and detached with Accutase (Sigma-Aldrich) prior to assay. The freshly detached cells were resuspended in growth media and plated in black, clear-bottom 96-well plates (Costar) containing compound (i.e., secondary compound plate) at a density of 5×10^4 cells/well. Once plated, cells were left at room temperature for 30 minutes and then transferred to a 37° C., 5% CO2 incubator for 24 hours. […] Finally, lysophosphatidic acid (18:1) at the EC80 concentration was added and calcium flux measured using FlexStation 3 (Molecular Devices). Sigmoidal dose-response curves were generated by measuring […] over 45 sec and calculating the area under the curve. […]

human LPA1, sequence (Q92633 whole entry): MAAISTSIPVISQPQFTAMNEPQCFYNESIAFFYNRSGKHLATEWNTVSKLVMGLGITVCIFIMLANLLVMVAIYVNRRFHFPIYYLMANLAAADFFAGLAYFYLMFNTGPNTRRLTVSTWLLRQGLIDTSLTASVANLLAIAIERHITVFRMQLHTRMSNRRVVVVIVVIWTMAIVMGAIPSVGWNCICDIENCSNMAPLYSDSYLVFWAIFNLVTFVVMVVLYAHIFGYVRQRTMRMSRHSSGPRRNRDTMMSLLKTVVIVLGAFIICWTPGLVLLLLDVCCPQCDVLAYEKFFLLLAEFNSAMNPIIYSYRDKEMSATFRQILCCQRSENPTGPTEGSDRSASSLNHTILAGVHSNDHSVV

Row | concentration at 2 h [1] [nM] | Kp uu [1] | IC50 (human LPA1) [nM] | Compound
1 | 290 | 0.05 | 10 to 100 | COc1ccc(NC(=O)N(c2cnccc2C(C)C)[C@H]2CC[C@H](C(=O)O)CC2)c(OC(F)F)n1 [Example 1, trans-4-(3-(2-(difluoromethoxy)-6-methoxypyridin-3-yl)-1-(4-isopropylpyridin-3-yl)ureido)cyclohexane-1-carboxylic acid]
2 | 2100 | 0.15 | 10 to 100 | COc1ccc(NC(=O)N(c2ncccc2C(C)C)[C@H]2CC[C@H](C(=O)O)CC2)c(OC(F)F)n1 [Example 2, trans-4-(3-(2-(difluoromethoxy)-6-methoxypyridin-3-yl)-1-(3-isopropylpyridin-2-yl)ureido)cyclohexane-1-carboxylic acid]
